Test results as given in patent US9469650B2, “Melampomagnolide B derivatives” (BOARD OF TRUSTEES OF THE UNIVERSITY OF ARKANSAS, priority 2013, dated 2016).

Key:
K-562 = test: panel of 60 human tumor cell lines, growth inhibition (Leukemia); conditions: K-562
LOX IMVI = test: panel of 60 human tumor cell lines, growth inhibition (Melanoma)
M14 = test: as above; conditions: M14
SF-268 = test: panel of 60 human tumor cell lines, growth inhibition (CNS Cancer); conditions: SF-268
SF-295 = test: as above; conditions: SF-295
U251 = test: as above; conditions: U251
COLO 205 = test: panel of 60 human tumor cell lines, growth inhibition (Colon Cancer); conditions: COLO 205
SW-620 = test: as above; conditions: SW-620
786-0 = test: panel of 60 human tumor cell lines, growth inhibition (Renal Cancer); conditions: 786-0
A498 = test: as above; conditions: A498

SMILES: C=C1C(=O)O[C@H]2[C@H]1CC/C(COC(=O)NC)=C\CC[C@@]1(C)O[C@@H]21 [JVM 2-57]
- Percent Growth (K-562; Log10 Concentration −4.0): −16%
- Percent Growth (K-562; Log10 Concentration −5.0): 16%
- Percent Growth (K-562; Log10 Concentration −6.0): 92%
- Percent Growth (K-562; Log10 Concentration −7.0): 92%
- Percent Growth (K-562; Log10 Concentration −8.0): 99%
- GI50 (K-562; NCI five dose): 3.58 µM
- TGI (K-562; NCI five dose): 3.20E−5
- Percent Growth (LOX IMVI; Log10 Concentration −4.0): −91%
- Percent Growth (LOX IMVI; Log10 Concentration −5.0): 21%
- Percent Growth (LOX IMVI; Log10 Concentration −6.0): 92%
- Percent Growth (LOX IMVI; Log10 Concentration −7.0): 95%
- Percent Growth (LOX IMVI; Log10 Concentration −8.0): 96%
- GI50 (LOX IMVI; NCI five dose): 3.92 µM
- TGI (LOX IMVI; NCI five dose): 1.55E−5
- Percent Growth (M14; Log10 Concentration −4.0): −66%
- Percent Growth (M14; Log10 Concentration −5.0): 27%
- Percent Growth (M14; Log10 Concentration −6.0): 87%
- Percent Growth (M14; Log10 Concentration −7.0): 89%
- Percent Growth (M14; Log10 Concentration −8.0): 99%
- GI50 (M14; NCI five dose): 4.1 µM
- TGI (M14; NCI five dose): 1.93E−5
- Percent Growth (SF-268; Log10 Concentration −4.0): −73%
- Percent Growth (SF-268; Log10 Concentration −5.0): 66%
- Percent Growth (SF-268; Log10 Concentration −6.0): 92%
- Percent Growth (SF-268; Log10 Concentration −7.0): 90%
- Percent Growth (SF-268; Log10 Concentration −8.0): 92%
- GI50 (SF-268; NCI five dose): 13 µM
- TGI (SF-268; NCI five dose): 2.98E−5
- Percent Growth (SF-295; Log10 Concentration −4.0): −30%
- Percent Growth (SF-295; Log10 Concentration −5.0): 76%
- Percent Growth (SF-295; Log10 Concentration −6.0): 93%
- Percent Growth (SF-295; Log10 Concentration −7.0): 90%
- Percent Growth (SF-295; Log10 Concentration −8.0): 97%
- GI50 (SF-295; NCI five dose): 17.5 µM
- TGI (SF-295; NCI five dose): 5.21E−5
- Percent Growth (U251; Log10 Concentration −4.0): −100%
- Percent Growth (U251; Log10 Concentration −5.0): 81%
- Percent Growth (U251; Log10 Concentration −6.0): 92%
- Percent Growth (U251; Log10 Concentration −7.0): 97%
- Percent Growth (U251; Log10 Concentration −8.0): 99%
- GI50 (U251; NCI five dose): 14.9 µM
- TGI (U251; NCI five dose): 2.81E−5
- Percent Growth (COLO 205; Log10 Concentration −4.0): −94%
- Percent Growth (COLO 205; Log10 Concentration −5.0): −8%
- Percent Growth (COLO 205; Log10 Concentration −6.0): 95%
- Percent Growth (COLO 205; Log10 Concentration −7.0): 97%
- Percent Growth (COLO 205; Log10 Concentration −8.0): 103%
- GI50 (COLO 205; NCI five dose): 2.73 µM
- TGI (COLO 205; NCI five dose): 8.33E−6
- CC50 (COLO 205; read-out: LC50, NCI five dose): 30.8 µM
- Percent Growth (SW-620; Log10 Concentration −4.0): −80%
- Percent Growth (SW-620; Log10 Concentration −5.0): 6%
- Percent Growth (SW-620; Log10 Concentration −6.0): 65%
- Percent Growth (SW-620; Log10 Concentration −7.0): 99%
- Percent Growth (SW-620; Log10 Concentration −8.0): 98%
- GI50 (SW-620; NCI five dose): 1.8 µM
- TGI (SW-620; NCI five dose): 1.16E−5
- Percent Growth (786-0; Log10 Concentration −4.0): −88%
- Percent Growth (786-0; Log10 Concentration −5.0): 38%
- Percent Growth (786-0; Log10 Concentration −6.0): 93%
- Percent Growth (786-0; Log10 Concentration −7.0): 90%
- Percent Growth (786-0; Log10 Concentration −8.0): 96%
- GI50 (786-0; NCI five dose): 5.94 µM
- TGI (786-0; NCI five dose): 1.99E−5
- Percent Growth (A498; Log10 Concentration −4.0): −90%
- Percent Growth (A498; Log10 Concentration −5.0): 32%
- Percent Growth (A498; Log10 Concentration −6.0): 66%
